Paper doi:10.1101/2025.10.06.680794v3 (biorxiv, 2026)

Target: p53 core domain (WT p53) (Homo sapiens, UniProt P04637)
Assay: intrinsic fluorescence quenching
Assay type: binding

Chain of p53 core domain (WT p53) (P04637 94-312): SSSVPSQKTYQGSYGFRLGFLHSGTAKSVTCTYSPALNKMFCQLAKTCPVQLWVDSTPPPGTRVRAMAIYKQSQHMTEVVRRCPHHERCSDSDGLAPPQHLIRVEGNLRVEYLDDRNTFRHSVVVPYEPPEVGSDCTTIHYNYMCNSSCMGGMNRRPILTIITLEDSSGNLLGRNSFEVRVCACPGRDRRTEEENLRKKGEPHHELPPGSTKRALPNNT

## CC1(C)CC(NCC(=O)N2C/C(=C\c3ccc(C#N)cc3)C(=O)/C(=C/c3ccc(C#N)cc3)C2)C(C)(C)N1[O] (stereo not shown) [AKT-100]
  Kd: 9.8 ± 0.1 µM
